Measured values: US20220142884A1, “TREATMENT OF AGING OR UV-DAMAGED SKIN” (Echo Pharmaceuticals B.V., priority 2019, published 2022)

What was measured:
collagen production = conditions: skin organ cultures, inhibition of PGE2 synthesis; cited from earlier work
[1] = test system: UV-B induced secretion of interleukin 8 (IL-8); assay: UV-B induced secretion of IL-8 in HaCaT cells (ELISA); type: cell-based, Human; conditions: UV-B as in Example 1, vs stimulated controls, component concentrations (μg/ml) per sample
Method: This assay was conducted on Human Epidermal Keratinocyte cells (HaCaT) and was carried out in triplicates. After reaching the required confluency, the cells were treated with pre-prepared growth medium containing the test component(s) at a final volume of 200 μL/well. Growth medium without test component was used to prepare the blank samples. The cells were incubated for 24 hr. Then, the medium was replaced with PBS (containing the test component) and the cells were subjected to 25 mJ/cm^2 (Table 2) or 12.5 mJ/cm^2 (Table 3) UV-B irradiation. The flux was determined by an external […]. Immediately after irradiation, the PBS was aspirated, and the cells were further incubated with freshly prepared media incubated for 24 hr. at 37° C. with 5% CO2. After incubation, the conditioned medium of the different treatment groups was collected under standardized conditions and centrifuged at 250×g for 5 min to remove particulates. Clear supernatants were frozen at -70° C. until analyses. […] The percentage inhibition was determined by comparing IL-8 levels in the test samples with the IL-8 level in the stimulated controls.

[2] = test system: UV-B induced secretion of prostaglandin E2 (PGE2); assay: UV-B induced secretion of PGE2 in keratinocyte HaCaT cells (ELISA); type: cell-based, Human; conditions: component concentrations (μg/ml) per sample
Method: This assay was conducted on Human Epidermal Keratinocyte cells (HaCaT) and was carried out in triplicates. After reaching the required confluency, the cells were treated with pre-prepared growth medium containing the test component(s) at a final volume of 200 μL/well. Growth medium without test component was used to prepare the blank samples. The cells were incubated for 24 hr. Then, the medium was replaced with PBS (containing the test component) and the cells were subjected to 25 mJ/cm^2 (Table 2) or 12.5 mJ/cm^2 (Table 3) UV-B irradiation. The flux was determined by an external […]. Immediately after irradiation, the PBS was aspirated, and the cells were further incubated with freshly prepared media incubated for 24 hr. at 37° C. with 5% CO2. After incubation, the conditioned medium of the different treatment groups was collected under standardized conditions and centrifuged at 250×g for 5 min to remove particulates. Clear supernatants were frozen at -70° C. until analyses. The UVB-induced cytokines secretion of PGE2 was measured by commercial ELISA, according to the manufacturer's instructions. The percentage inhibition was determined by comparing PGE2 levels in the test samples with PGE2 level in the stimulated controls. Example 1 was repeated in HaCaT cells, using the lower UV-B dosage (12.5 mJ/cm^2 flux). In addition, an extra test component was used (docosahexaenoic acid).

[3] = 25 mJ/cm^2 UV-B, 24 hr pre-incubation, vs stimulated controls
[4] = lower UV-B dosage 12.5 mJ/cm^2, vs stimulated controls

Row | Structure (SMILES) | collagen production (collagen production) | Inhibition (%) IL-8 [1] [%] | Inhibition (%) PGE2 [2, 3] [%] | Inhibition (%) PGE2 [2, 4] [%]
1 | O=C(O)Cc1ccccc1Nc1c(Cl)cccc1Cl [diclofenac] | enhanced collagen production | – | – | –
2 | CC/C=C\C/C=C\C/C=C\C/C=C\C/C=C\CCCC(=O)O [Sample 3, eicosapentaenoic acid] | – | −6 | −11 | −3
3 | C=C(C)[C@@H]1CCC(C)=C[C@H]1c1c(O)cc(CCCCC)cc1O [Sample 2, Cannabidiol] | – | 3 | 17 | −8
4 | CC/C=C\C/C=C\C/C=C\C/C=C\C/C=C\CCCC(=O)O [Sample 4, eicosapentaenoic acid] | – | −16 | 1 | 5
5 | C=C(C)[C@@H]1CCC(C)=C[C@H]1c1c(O)cc(CCCCC)cc1O [Sample 1, Cannabidiol] | – | −1 | 0 | −11
